Eleven compounds from PubChem BioAssay (NCI) can be followed below.

Common to all, as to test: DTP human tumour cell line panel, 48 h
In experiment [1] the test system is A549 NSCLC.
In experiment [2] the test system is ACHN renal.
Experiment [3] deals with BT-549 breast.
Experiment [4] concerns EKVX NSCLC.
The test system of experiment [5] is HS 578T breast.
Experiment [6] deals with HT29 colon.
The subject of experiment [7] is M14 melanoma.
Experiment [8] has as its system MCF7 breast.
In experiment [9] the test system is MDA-MB-231 breast.
Experiment [10] concerns MOLT-4 leukemia.
For experiment [11], the system named is NCI-H522 lung.
The subject of experiment [12] is SF-539 CNS.
Experiment [13] concerns SK-MEL-5 melanoma.
Experiment [14] concerns TK-10 renal.

Structures are written as SMILES.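 Protocol summary: plate cells (96-well), add compound at 5 concentrations, incubate 48 h, interpolate endpoints linearly. The concentration for full growth arrest is given as TGI.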

For the compound `NC1=NN(c2ccccc2)C2(c3ccncc3C(=O)O)C1C(N)=NN2c1ccccc1` (stereo not drawn), the TGI in experiment [1], in experiment [2], in experiment [3], in experiment [4], in [5] and in [6] was above 100 µM throughout. Also, the TGI in [7], in experiment [8], in [9], in experiment [10], in experiment [11] and in experiment [12] was above 100 µM in each case. Also, in experiment [13], the concentration for total growth inhibition (TGI) is above 100 µM.
Regarding `O=C(Nc1nncs1)NS(=O)(=O)n1cnc2ccccc21`, the TGI in [1], in experiment [2], in experiment [3], in [4], in experiment [5] and in experiment [6] was above 100 µM each time. In addition, the TGI in experiment [7], in [9], in experiment [10], in [11], in [12] and in experiment [13] was above 100 µM throughout. For the same compound, the concentration for total growth inhibition (TGI) in [14] is above 100 µM.
As to `c1nc(SSc2ncnc3nc[nH]c23)c2[nH]cnc2n1`, the TGI in [1], in experiment [2], in experiment [3], in experiment [4], in experiment [5] and in [6] was above 100 µM in each case. The TGI is above 68.7 µM in experiment [7]; above 56.5 µM in experiment [9]; above 40.4 µM in experiment [10]; above 100 µM in experiment [11]; above 100 µM in [12]; 37.6 µM in experiment [13].
Consider `Cc1ccc(S(=O)C[C@@]2(C(F)F)NC(=O)NC2=O)cc1` (stereo partly drawn), for which the TGI in experiment [1], in experiment [2], in [3], in experiment [4], in [5] and in [6] was above 100 µM each time. Moreover, the TGI in [7], in [9], in experiment [10], in [11], in experiment [13] and in [14] was above 100 µM throughout.
As for `O=Cc1[nH]c(=O)[nH]c(=O)c1CCl`, the TGI in [1], in experiment [2], in experiment [3], in experiment [4], in [5] and in experiment [6] was above 100 µM in each case. In addition, the concentration for total growth inhibition (TGI) in experiment [8], in experiment [9], in experiment [10], in experiment [11], in experiment [12] and in [13] was above 100 µM in each case. The compound also came in with a TGI in experiment [14] above 100 µM.
For the compound `COC(=O)c1cc(-c2ccc(-c3ccc(O)cc3)cc2)cc(-c2ccc(-c3ccc(O)cc3)cc2)c1`, the TGI in experiment [1] came out at 20.9 µM; in experiment [2] it was 27.3 µM; in experiment [3], 26.6 µM; in experiment [4] it was 25.2 µM; in experiment [7] it was 30.5 µM; in [8], 25.9 µM. For the same compound, the TGI in [9] came out at 71.3 µM; in [10], 22.1 µM; in [11], 8.66 µM; in experiment [12], 19.8 µM; in experiment [13] it was 30.7 µM; in experiment [14], 26.7 µM.
Take `c1cc2cc(c1)CN1CCNCCN(CCNCC1)Cc1cccc(c1)CN1CCNCCN(CCNCC1)C2`: the TGI in [1], in experiment [2], in experiment [3], in [4], in experiment [5] and in [6] was above 100 µM throughout. Besides, the TGI in [7], in experiment [8], in [9], in experiment [10], in experiment [12] and in experiment [13] was above 100 µM throughout. Moreover, the TGI in experiment [14] was above 100 µM.
Regarding `CC(=O)OCC1OC(n2c3c(cc(C#N)c2=S)CCCCCC3)C(OC(C)=O)C(OC(C)=O)C1OC(C)=O` (stereo not drawn), the total growth inhibition concentration (TGI) in experiment [1], in [2], in experiment [3], in experiment [5], in experiment [6] and in experiment [7] was above 100 µM in each case. In addition, the TGI in experiment [8], in experiment [9], in [10], in experiment [11], in experiment [12] and in experiment [13] was above 100 µM each time. In experiment [14], this compound yielded a TGI above 100 µM.
Take `O=c1c[n+](-c2ccccc2)[nH]o1`: the TGI in experiment [1], in experiment [2], in experiment [3], in [4], in experiment [5] and in experiment [6] was above 100 µM in each case. Also, the TGI in experiment [7], in [8], in experiment [9], in experiment [12], in experiment [13] and in experiment [14] was above 100 µM in each case.
Consider `CN(C)CCCNC(=O)c1cc(NC(=O)c2cc(NC(=O)[C@H]3C[C@@H]3C(=O)Nc3cc(C(=O)Nc4cc(C(=O)NCCCN(C)C)n(C)c4)n(C)c3)cn2C)cn1C`, for which the TGI in [1], in experiment [2], in experiment [3], in [4], in experiment [6] and in [7] was above 100 µM in each case. The TGI in experiment [8], in [9], in experiment [10], in experiment [11], in [12] and in experiment [13] was above 100 µM each time.
As to `COc1cc(C=Nc2ccc(S(N)(=O)=O)cc2)cc(OC)c1`, the TGI in [1], in experiment [2], in experiment [3], in experiment [4], in experiment [5] and in experiment [6] was above 50 µM each time. Also, the TGI in experiment [7], in [8], in [9], in experiment [10], in experiment [12] and in [13] was above 50 µM throughout. Moreover, the TGI in experiment [14] was above 50 µM.
